This note sets out measurements from PubChem BioAssay (NCI).

Holding throughout (assay): NCI anticancer screen, dose series, 48 h
Experiment [1] relates to HOP-92 NSCLC.
Experiment [2] has as its system SK-MEL-2 melanoma.
The test system of experiment [3] is NCI/ADR-RES ovarian.
Experiment [4] has as its system UO-31 renal.
Experiment [5] relates to MDA-N.
The subject of experiment [6] is SF-295 CNS.
Experiment [7] deals with SK-MEL-28 melanoma.
The subject of experiment [8] is PC-3 prostate.
For experiment [9], the system named is LOX IMVI melanoma.
For experiment [10], the system named is HT29 colon.
Experiment [11] has as its system SF-268 CNS.
In experiment [12] the test system is NCI-H23 lung.
The test system of experiment [13] is NCI-H226 lung.
Experiment [14] deals with UACC-62 melanoma.
Experiment [15] has as its system COLO 205 colon.
Experiment [16] concerns T-47D breast.
Experiment [17] deals with CAKI-1 renal.

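Five concentrations, 48 hours, 96-well plates. TGI: total growth inhibition.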 Some results are limits rather than exact numbers.

As for `CCOC(=O)CCC(NC(=O)c1ccc(N2CCN(c3c(C)nc(N)nc3N)CC2)cc1)C(=O)OCC` (stereo not given), the TGI in [1] is above 100 µM; in [2] it was above 100 µM; in experiment [3], above 100 µM; in [4], above 100 µM; in experiment [5] it was above 54.7 µM; in [6], above 100 µM. In addition, the TGI in experiment [7] is above 47.4 µM; in experiment [8], above 100 µM; in experiment [9], above 100 µM; in experiment [10], above 100 µM; in [11], above 100 µM; in experiment [12], above 100 µM. The TGI in experiment [13], in [14], in experiment [15], in [16] and in [17] was above 100 µM in each case.

In the case of `O=[N+]([O-])c1cccnc1NCC1(CO)CC(Cc2ccccc2)C1` (stereo not given), the TGI in experiment [1] was 60.1 µM; in [2], above 100 µM; in [3] it was above 100 µM; in experiment [4] it was above 100 µM; in [5], above 100 µM; in [6] it was above 100 µM. The TGI in experiment [7], in experiment [8], in [9], in experiment [10], in experiment [11] and in experiment [12] was above 100 µM throughout. Moreover, the TGI in experiment [13], in experiment [14], in [15], in [16] and in experiment [17] was above 100 µM each time.

Take `Cn1c(-c2cccs2)cc(-c2cccs2)c1-c1ccsc1`: the TGI was above 100 µM in experiment [1]; 98.1 µM in [2]; above 100 µM in experiment [3]; above 100 µM in experiment [4]; above 100 µM in experiment [5]; above 100 µM in [6]. The TGI in [7], in experiment [8], in [9], in [10], in experiment [11] and in experiment [12] was above 100 µM in each case. Moreover, the TGI in experiment [13], in experiment [14], in [15], in [16] and in [17] was above 100 µM each time.

Turning to `Cc1ccc(N=C2C(=O)C3=C(OC(C)(C)CC3)c3ccccc32)cc1`, the TGI in experiment [1] is 3.2 µM; in experiment [2] it was 3.31 µM; in experiment [3], 1.75 µM; in [4], 1.96 µM; in experiment [5], 0.335 µM; in experiment [6], 2.7 µM. Moreover, the TGI in experiment [7] was 4.69 µM; in [8], 3.52 µM; in experiment [10], 1.15 µM; in [11], 6.37 µM; in [12], 6.88 µM; in experiment [13], above 20.4 µM. Further, the TGI turned out to be 2.88 µM in experiment [14], 3.29 µM in [15], 1.37 µM in [16] and 3.16 µM in [17].

For the compound `CNC1=CC(=O)C2=C(C1=O)[C@H]1CC[C@]3(C)C(=O)CC[C@H]3[C@@H]1CC2`, the TGI was 25.7 µM in experiment [1]; 17.1 µM in experiment [2]; 42.1 µM in [3]; 49.2 µM in experiment [4]; 25 µM in experiment [5]; 29.1 µM in experiment [6]. Besides, the TGI is 34.4 µM in [7]; 38.9 µM in experiment [8]; 23.7 µM in [9]; 19.9 µM in experiment [12]; 25.5 µM in [13]; 31.9 µM in experiment [14]. The TGI in [15] is 33.3 µM; in experiment [16], 57.9 µM; in experiment [17] it was 33.6 µM.

In the case of `C[C@H](O)C1CC(Cn2nnc3c(N)ncnc32)C1(C)C` (stereo not given in full), the TGI in [1], in [2], in experiment [3], in [4], in [5] and in experiment [6] was above 100 µM in each case. For the same compound, the TGI in experiment [7], in experiment [8], in [9], in experiment [11], in [13] and in experiment [14] was above 100 µM in each case. In addition, the TGI in experiment [16] and in experiment [17] was above 100 µM in each case.

Take `CC(=O)Nc1ccc2[nH]c(-c3cccc(F)c3)cc(=O)c2c1`: the TGI in experiment [1] was above 55.1 µM; in experiment [2], […]; in experiment [3], 21.2 µM; in experiment [4], above 82.2 µM; in experiment [5] it was above 25.4 µM; in experiment [6] it was above 77.2 µM. Moreover, the TGI in experiment [7] is above 100 µM; in experiment [8], above 100 µM; in experiment [10] it was above 100 µM; in experiment [12], above 56.8 µM; in experiment [13], above 75.9 µM; in experiment [14], above 31 µM. Further, the TGI in experiment [15] is above 65.5 µM; in experiment [16] it was above 100 µM; in [17] it was above 100 µM.

Take `COc1ccccc1N1CCN(Cn2c(=O)oc3cccnc32)CC1`: the TGI in experiment [1], in [2], in experiment [3], in experiment [4], in [5] and in experiment [6] was above 100 µM in each case. Besides, the TGI in experiment [7], in experiment [8], in experiment [9], in [10], in experiment [11] and in [12] was above 100 µM throughout. Moreover, the TGI in experiment [16] and in experiment [17] was above 100 µM throughout.

Consider `c1cc2c(c(-c3c4ccccc4nc4ccccc34)c1)CC1(CC2)OCCO1`, for which the TGI in experiment [1], in experiment [2], in experiment [3], in experiment [4], in experiment [5] and in [6] was above 100 µM each time. Besides, the TGI in experiment [7], in [8], in experiment [9], in [11], in experiment [12] and in experiment [13] was above 100 µM throughout. In addition, the TGI in experiment [15], in experiment [16] and in [17] was above 100 µM each time.
